Reference: patent US12396458B2, “Fused ring substituted aromatic compound and preparation method therefor, herbicidal composition, and use thereof” (Qingdao Kingagroot Chemical Compound Co., Ltd., priority 2020, dated 2025)

How the values were obtained:
Test in all cases: Weeding effect in post-emergence stage (greenhouse pot test)
Type in all cases: in vivo
Beckmannia syzigachne = conditions: 3 weeks after application, fresh weight control rate
Text: (§1) The activity level criteria for plant damage (i.e., growth control rate) are as follows:
(§2) Level 5: growth control rate is above 85%; • Level 4: growth control rate is greater than or equal to 60% and less than 85%; • Level 3: growth control rate is greater than or equal to 40% and less than 60%; • Level 2: growth control rate is greater than or equal to 20% and less than 40%; • Level 1: growth control rate is greater than or equal to 5% and less than 20%; • Level 0: growth control rate is less than 5%.
(§3) The above growth control rates are fresh weight control rates.
(§4) Experiment on weeding effect in post-emergence stage:
(§5) Monocotyledonous and dicotyledonous weed seeds (Descurainia sophia, Capsella bursa-pastoris, Abutilon theophrasti, Galium aparine, Stellaria media, Lithospermum arvense, Rorippa indica, Alopecurus aequalis, Alopecurus japonicus, Eleusine indica, Beckmannia syzigachne, Sclerochloa dura, Phleum paniculatum, Veronica didyma Tenore, Bromus japonicus, Aegilops tauschii, Phalaris arundinacea, Amaranthus retrojlexus, Chenopodiaceae, Commelina communis, Sonchus arvensis, convolvulus arvensis, Cirsium setosum, Solanum nigrum, Acalypha australis, Digitaria sanguinalis, Echinochloa crusgalli, Setaria viridis, Setaria glauca, Leptochloa chinensis, Monochoria vaginalis, Sagittaria trifolia, Scirpus juncoides, Cyperus rotundus, Cyperus iria, Cyperus difformis, Fimbristylis, Portulaca oleracea, Xanthium sibiricum, Pharbitis nil, Conyza japonica, etc.) and major crop seeds (wheat, corn, rice, soybean, cotton, oilseed rape, millet, sorghum, potato, sesame, ricinus, etc.) were placed in plastic pots filled with soil, then covered with 0.5-2 cm of soil, allowed to grow in a good greenhouse environment. After 2 weeks of sowing, the test plants were treated in the 2-3 leaf stage. The tested compounds of the present invention were respectively dissolved in acetone, then added with Tween 80 and 1.5 liter/ha of emulsifiable concentrate of methyl oleate as synergist, diluted with a certain amount of water to obtain a solution with a certain concentration, and sprayed with a spray tower onto the plants. After the application, the plants were cultured for 3 weeks in the greenhouse, and then the experimental results of the weeding were counted. The doses of the used compounds were 500, 250, 125, 60, 15, 7.5 g a.i./ha, and the averages were obtained by repeating for three times.

Capsella bursa-pastoris = conditions: 3 weeks after application, fresh weight control rate
Text: as §1, §2, §3, §4, §5

Conyza japonica = conditions: post-emergence, 3 weeks after application, fresh weight control rate
Text: as §1, §2, §3, §4, §5

Alopecurus japonicus = conditions: 3 weeks after application, fresh weight control rate
Text: as §1, §2, §3, §4, §5

| Structure (SMILES) | Activity level (growth control rate), Beckmannia syzigachne (Beckmannia syzigachne; dose 15 g a.i./ha) | Activity level (growth control rate), Capsella bursa-pastoris (Capsella bursa-pastoris; dose 15 g a.i./ha) | Activity level (growth control rate), Conyza japonica (Conyza japonica; dose 15 g a.i./ha) | Activity level (growth control rate), Alopecurus japonicus (Alopecurus japonicus; dose 15 g a.i./ha) | Activity level (growth control rate), Beckmannia syzigachne (Beckmannia syzigachne; dose 125 g a.i./ha) | Activity level (growth control rate), Capsella bursa-pastoris (Capsella bursa-pastoris; dose 125 g a.i./ha) | Activity level (growth control rate), Conyza japonica (Conyza japonica; dose 125 g a.i./ha) | Activity level (growth control rate), Alopecurus japonicus (Alopecurus japonicus; dose 125 g a.i./ha) |
| --- | --- | --- | --- | --- | --- | --- | --- | --- |
| COCCOC(=O)C12CCCC1C(c1cc(-n3c(=O)cc(C(F)(F)F)n(C)c3=O)c(F)cc1Cl)=NO2 (stereo not shown) [Compound 245] | 5 (Level 5: growth control rate is above 85%) | 5 (Level 5: growth control rate is above 85%) | 4 (Level 4: growth control rate is greater than or equal to 60% and less than 85%) | 5 (Level 5: growth control rate is above 85%) |  |  |  |  |
| Cn1c(C(F)(F)F)cc(=O)n(-c2cc(C3=NOC4(C(=O)OCC5CCCO5)CCCC34)c(Cl)cc2F)c1=O (stereo not shown) [Compound 261] | 5 (Level 5: growth control rate is above 85%) | 5 (Level 5: growth control rate is above 85%) | 4 (Level 4: growth control rate is greater than or equal to 60% and less than 85%) | 5 (Level 5: growth control rate is above 85%) |  |  |  |  |
| CC(C)=NOC(=O)C12CCCC1C(c1cc(-n3c(=O)cc(C(F)(F)F)n(C)c3=O)c(F)cc1Cl)=NO2 (stereo not shown) [Compound 278] | 5 (Level 5: growth control rate is above 85%) | 5 (Level 5: growth control rate is above 85%) | 4 (Level 4: growth control rate is greater than or equal to 60% and less than 85%) | 5 (Level 5: growth control rate is above 85%) |  |  |  |  |
| Cc1cc(C)n(C(=O)C23CCCC2C(c2cc(-n4c(=O)cc(C(F)(F)F)n(C)c4=O)c(F)cc2Cl)=NO3)n1 (stereo not shown) [Compound 333] | 4 (Level 4: growth control rate is greater than or equal to 60% and less than 85%) | 4 (Level 4: growth control rate is greater than or equal to 60% and less than 85%) | 4 (Level 4: growth control rate is greater than or equal to 60% and less than 85%) | 4 (Level 4: growth control rate is greater than or equal to 60% and less than 85%) |  |  |  |  |
| COC(=O)C12CCOC1C(c1cc(-n3c(=O)cc(C(F)(F)F)n(C)c3=O)c(F)cc1Cl)=NO2 (stereo not shown) [Compound 372] |  |  |  |  | 4 (Level 4: growth control rate is greater than or equal to 60% and less than 85%) | 5 (Level 5: growth control rate is above 85%) | 4 (Level 4: growth control rate is greater than or equal to 60% and less than 85%) | 4 (Level 4: growth control rate is greater than or equal to 60% and less than 85%) |
| Cn1c(C(F)(F)F)cc(=O)n(-c2cc(C3=NOC4(C(=O)OCCCl)CCCC34)c(Cl)cc2F)c1=O (stereo not shown) [Compound 424] | 5 (Level 5: growth control rate is above 85%) | 5 (Level 5: growth control rate is above 85%) | 5 (Level 5: growth control rate is above 85%) | 5 (Level 5: growth control rate is above 85%) |  |  |  |  |
| CCOCOC(=O)C12CCCC1C(c1cc(-n3c(=O)cc(C(F)(F)F)n(C)c3=O)c(F)cc1Cl)=NO2 (stereo not shown) [Compound 425] | 5 (Level 5: growth control rate is above 85%) | 5 (Level 5: growth control rate is above 85%) | 4 (Level 4: growth control rate is greater than or equal to 60% and less than 85%) | 5 (Level 5: growth control rate is above 85%) |  |  |  |  |
| Cn1c(C(F)(F)F)cc(=O)n(-c2cc(C3=NOC4(C(=O)Oc5ccccc5)CCCC34)c(Cl)cc2F)c1=O (stereo not shown) [Compound 426] | 4 (Level 4: growth control rate is greater than or equal to 60% and less than 85%) | 5 (Level 5: growth control rate is above 85%) | 4 (Level 4: growth control rate is greater than or equal to 60% and less than 85%) | 5 (Level 5: growth control rate is above 85%) |  |  |  |  |
| Cn1c(C(F)(F)F)cc(=O)n(-c2cc(C3=NOC4(C(=O)N5CCCC5)CCCC34)c(Cl)cc2F)c1=O (stereo not shown) [Compound 427] | 4 (Level 4: growth control rate is greater than or equal to 60% and less than 85%) | 5 (Level 5: growth control rate is above 85%) | 4 (Level 4: growth control rate is greater than or equal to 60% and less than 85%) | 5 (Level 5: growth control rate is above 85%) |  |  |  |  |
| COC(=O)C12CCC(F)C1C(c1cc(-n3c(=O)cc(C(F)(F)F)n(C)c3=O)c(F)cc1Cl)=NO2 (stereo not shown) [Compound 441] | 4 (Level 4: growth control rate is greater than or equal to 60% and less than 85%) | 5 (Level 5: growth control rate is above 85%) | 4 (Level 4: growth control rate is greater than or equal to 60% and less than 85%) | 4 (Level 4: growth control rate is greater than or equal to 60% and less than 85%) |  |  |  |  |
| COC(=O)C12CCC(C)C1C(c1cc(-n3c(=O)cc(C(F)(F)F)n(C)c3=O)c(F)cc1Cl)=NO2 (stereo not shown) [Compound 443] | 5 (Level 5: growth control rate is above 85%) | 5 (Level 5: growth control rate is above 85%) | 4 (Level 4: growth control rate is greater than or equal to 60% and less than 85%) | 5 (Level 5: growth control rate is above 85%) |  |  |  |  |
| CCOC(=O)C12CCC(=NOC)C1C(c1cc(-n3c(=O)cc(C(F)(F)F)n(C)c3=O)c(F)cc1Cl)=NO2 (stereo not shown) [Compound 451] | 4 (Level 4: growth control rate is greater than or equal to 60% and less than 85%) | 5 (Level 5: growth control rate is above 85%) | 4 (Level 4: growth control rate is greater than or equal to 60% and less than 85%) | 4 (Level 4: growth control rate is greater than or equal to 60% and less than 85%) |  |  |  |  |
| CCOC(=O)C12ON=C(c3cc(-n4c(=O)cc(C(F)(F)F)n(C)c4=O)c(F)cc3Cl)C1CCC2Br (stereo not shown) [Compound 474] | 4 (Level 4: growth control rate is greater than or equal to 60% and less than 85%) | 5 (Level 5: growth control rate is above 85%) | 4 (Level 4: growth control rate is greater than or equal to 60% and less than 85%) | 4 (Level 4: growth control rate is greater than or equal to 60% and less than 85%) |  |  |  |  |
| CCOC(=O)C12ON=C(c3cc(-n4c(=O)cc(C(F)(F)F)n(C)c4=O)c(F)cc3Cl)C1CCC2C (stereo not shown) [Compound 476] | 5 (Level 5: growth control rate is above 85%) | 5 (Level 5: growth control rate is above 85%) | 4 (Level 4: growth control rate is greater than or equal to 60% and less than 85%) | 5 (Level 5: growth control rate is above 85%) |  |  |  |  |
| CCOC(=O)C12ON=C(c3cc(-n4c(=O)cc(C(F)(F)F)n(C)c4=O)c(F)cc3Cl)C1CCC2CC (stereo not shown) [Compound 477] | 4 (Level 4: growth control rate is greater than or equal to 60% and less than 85%) | 5 (Level 5: growth control rate is above 85%) | 4 (Level 4: growth control rate is greater than or equal to 60% and less than 85%) | 5 (Level 5: growth control rate is above 85%) |  |  |  |  |
| COC(=O)C12CCCC1C(c1cc(-n3c(=S)cc(C(F)(F)F)n(C)c3=O)c(F)cc1Cl)=NO2 (stereo not shown) [Compound 498] | 5 (Level 5: growth control rate is above 85%) | 5 (Level 5: growth control rate is above 85%) | 4 (Level 4: growth control rate is greater than or equal to 60% and less than 85%) | 5 (Level 5: growth control rate is above 85%) |  |  |  |  |
